In patent US6203976A, “Methods of preparing compositions comprising chemicals capable of transcriptional modulation” (OSI Pharmaceuticals, Inc., priority 1994, dated 2001):
Where “and” joins values, the source holds several entries; their conditions need not be identical. Identical values can stand only once. Like-named read-outs stand apart in the source and are kept apart here.

What was measured:
[1] = tested on: human growth hormone (532) promoter; assay: High-throughput luciferase reporter assay, human Growth Hormone promoter (Screen III); assay type: cell-based; settings: for FOLD INDUCTION RELATIVE TO SOLVENT CONTROL, hGH: Screen III activators
[2] = tested on: human G-CSF (G21) promoter; assay: High-throughput luciferase reporter assay, G-CSF promoter (Screen III); settings: for scored as positive in repeat assays, G-CSF: 48 independent luciferase assays performed on the same day; for FOLD INDUCTION RELATIVE TO SOLVENT CONTROL, GCSF: Screen III activators; for FOLD INDUCTION RELATIVE TO SOLVENT CONTROL, GCSF / FOLD INHIBITION RELATIVE TO SOLVENT CONTROL, GCSF: G21 cells, 6 hours; for FOLD INHIBITION RELATIVE TO SOLVENT CONTROL, GCSF: Screen III inhibitors
MMTV (M10) promoter = assay: High-throughput luciferase reporter assay, MMTV promoter (Screen III); assay type: cell-based, mouse; settings: for FOLD INDUCTION RELATIVE TO SOLVENT CONTROL, MMTV: Screen III activators
Experimental: pMluci and pSV2Neo, an antibiotic resistance plasmid (112), were co-transfected into NIH/3T3 mouse fibroblast cells using the calcium phosphate precipitation method (103) with a commercially available kit (Pharmacia, Piscataway N.J.). Two days later, cells were transferred to media containing 0.4 mg/ml G418 and were grown for an additional 10-14 days. G418-resistant clones were isolated by standard methods. Once sufficient cell numbers were obtained, clones were analyzed based on several criteria: constitutive luciferase production, induction of luciferase expression by dexamethasone (1 μm, Sigma, St. Louis, Mo.), satisfactory attachment to microtiter plates used in the high-throughput screen and acceptable standard deviation in multiple luciferase expression assays (see below for assay protocol). This analysis was carried out using the luciferase assay conditions described above. Of the clones which satisfied the above criteria for the high throuphput screen, one clone, M10, was selected for use.

[3] = Screen III inhibitors, 532 cells, 6 hours
[4] = Screen III inhibitors, M10 cells, 6 hours

Structure (SMILES) | FOLD INDUCTION RELATIVE TO SOLVENT CONTROL, hGH ([1]; 532 cells, 6 hours) | FOLD INDUCTION RELATIVE TO SOLVENT CONTROL, GCSF [2] | FOLD INDUCTION RELATIVE TO SOLVENT CONTROL, MMTV (MMTV (M10) promoter; M10 cells, 6 hours) | further results
CC(=O)n1ccnc1 [Chemical #58, 1-Acetylimidazole] | 0.17 fold | 6.03 fold | 0.42 fold | scored as positive in repeat assays, G-CSF [2]: scored as positives in every single one of these assays
CC(=O)N(C)c1ccc(N)cc1 [Chemical #1374, 4'-Amino-N-methylacetanilide] | 0.05 fold | 11.03 fold | 1.05 fold | scored as positive in repeat assays, G-CSF [2]: scored as positives in every single one of these assays
CN(C)c1ccc(C(=C2C=CC(=[N+](C)C)C=C2)c2ccc(N(C)C)cc2)cc1 [Chemical #1780, Crystal Violet] | 0.38 fold | 20.39 fold | 1.15 fold | scored as positive in repeat assays, G-CSF [2]: scored as positives in every single one of these assays
O=NN(O)c1ccccc1 [Chemical #1783, Cupferron] | 0.32 fold | 6.55 fold | 0.89 fold | scored as positive in repeat assays, G-CSF [2]: scored as positive only in half of the 48 repeat assays
CC(=O)c1c(C)cc(NC(C)(C)C)nc1NC(C)(C)C [compound 40] | 0.62 fold | 5.62 fold | 0.27 fold | 
CC(=O)c1ccc[nH]1 [compound 70] | 9.26 fold | 0.43 fold | 0.85 fold | 
CN(C)c1ccc2cc3ccc(N(C)C)cc3nc2c1 [compound 80] | 0.66 fold | 5.87 fold | 0.83 fold | 
CN(C)c1ccc(C(=N)c2ccc(N(C)C)cc2)cc1 [compound 183] |  |  |  | FOLD INHIBITION RELATIVE TO SOLVENT CONTROL, hGH [1, 3]: 4.00 fold; FOLD INHIBITION RELATIVE TO SOLVENT CONTROL, GCSF [2]: 0.72 fold; FOLD INHIBITION RELATIVE TO SOLVENT CONTROL, MMTV (MMTV (M10) promoter; [4]): 0.70 fold
O=C(c1ccccc1)c1ccncc1 [compound 209] |  |  |  | FOLD INHIBITION RELATIVE TO SOLVENT CONTROL, hGH [1, 3]: 1.08 fold; FOLD INHIBITION RELATIVE TO SOLVENT CONTROL, MMTV (MMTV (M10) promoter; [4]): 0.81 fold
CCOC(=O)N1C(=O)c2ccccc2C1=O [compound 237] | 0.06 fold | 4.77 fold | 0.62 fold | 
Cc1c(C(=O)O)c(O)cc2c1C(=O)c1c(O)c([C@@H]3O[C@H](CO)[C@@H](O)[C@H](O)[C@H]3O)c(O)c(O)c1C2=O [compound 240] |  |  |  | FOLD INHIBITION RELATIVE TO SOLVENT CONTROL, hGH [1, 3]: 5.26 fold; FOLD INHIBITION RELATIVE TO SOLVENT CONTROL, GCSF [2]: 0.63 fold; FOLD INHIBITION RELATIVE TO SOLVENT CONTROL, MMTV (MMTV (M10) promoter; [4]): 0.80 fold
ClCCN1CCCCC1 [compound 254] | 0.90 fold | 4.09 fold | 0.98 fold | 
NC(=O)N1c2ccccc2CCc2ccccc21 [compound 299] | 5.46 fold | 0.53 fold | 0.47 fold | 
CCn1c(=O)[nH]c2ccccc21 [compound 322] | 11.18 fold | 0.60 fold | 1.12 fold | 
O=c1c(O)c(-c2ccc(O)c(O)c2)oc2cc(O)ccc12 [compound 325] | 5.42 fold | 0.14 fold | 1.0 fold | 
Nc1nc(N)nc(N)n1 [compound 364] | 1.18 fold | 3.67 fold | 1.07 fold | 

Structure (SMILES) | FOLD INDUCTION RELATIVE TO SOLVENT CONTROL, hGH ([1]; 532 cells, 6 hours) | FOLD INDUCTION RELATIVE TO SOLVENT CONTROL, GCSF [2] | FOLD INDUCTION RELATIVE TO SOLVENT CONTROL, MMTV (MMTV (M10) promoter; M10 cells, 6 hours) | further results
O=c1c(O)c(-c2ccc(O)cc2O)oc2cc(O)cc(O)c12 [compound 371] |  |  |  | FOLD INHIBITION RELATIVE TO SOLVENT CONTROL, hGH [1, 3]: 0.41 fold; FOLD INHIBITION RELATIVE TO SOLVENT CONTROL, MMTV (MMTV (M10) promoter; [4]): 0.89 fold
O=C(O)c1ccc2c3c(ncnc13)-c1ccccc1C2=O [compound 378] | 0.26 fold | 4.12 fold | 0.59 fold | 
CCN(CC)CCCC(C)Nc1c2ccc(Cl)cc2nc2ccc(OC)cc12 (stereo not shown) [compound 423] | 0.56 fold | 2.39 fold | 0.64 fold | 
O=c1ccc2[n+]([O-])c3ccc(O)cc3oc-2c1 [compound 427] | 0.43 fold | 3.14 fold | 0.71 fold | 
Cc1cc(C)nc(NS(=O)(=O)c2ccc(N)cc2)n1 [compound 443] |  |  |  | FOLD INHIBITION RELATIVE TO SOLVENT CONTROL, hGH [1, 3]: 4.76 fold; FOLD INHIBITION RELATIVE TO SOLVENT CONTROL, GCSF [2]: 0.60 fold; FOLD INHIBITION RELATIVE TO SOLVENT CONTROL, MMTV (MMTV (M10) promoter; [4]): 0.79 fold
c1ccc(-c2cccc(-c3ccccn3)n2)nc1 [compound 453] | 0.58 fold | 0.79 fold |  | FOLD INDUCTION RELATIVE TO SOLVENT CONTROL, MMTV (MMTV (M10) promoter; M10 cells, 6 hours, 360 min): 13.3 fold and 13.30 fold; ability to activate the MMTV promoter with methanol replacing DMSO (MMTV (M10) promoter; chemical dissolved in methanol instead of DMSO): did not affect its ability to activate the MMTV promoter
c1ncncn1 [compound 473] | 0.50 fold | > 3 fold | 0.87 fold | 
CC(C=O)=CC=CC(C)=CC=CC=C(C)C=CC=C(C)C=CC1=C(C)CCCC1(C)C [compound 519] | 0.68 fold | 1.15 fold | 2.76 fold | 
O=P(O)(O)Oc1c[nH]c2ccc(Br)c(Cl)c12 [compound 541] |  |  |  | FOLD INHIBITION RELATIVE TO SOLVENT CONTROL, hGH [1, 3]: 6.25 fold; FOLD INHIBITION RELATIVE TO SOLVENT CONTROL, GCSF [2]: 0.90 fold; FOLD INHIBITION RELATIVE TO SOLVENT CONTROL, MMTV (MMTV (M10) promoter; [4]): 0.86 fold
Nc1nc(=O)n([C@H]2C[C@H](O)[C@@H](CO)O2)cc1Br [compound 542] | 1.08 fold | 6.28 fold | 1.26 fold | 
O=c1[nH]c(=O)n([C@H]2C[C@H](O)[C@@H](CO)O2)cc1Br [compound 543] | 0.72 fold | 7.17 fold | 0.98 fold | 
C[C@]12C=CC(=O)C=C1CC[C@@H]1[C@@H]2[C@@H](O)C[C@@]2(C)[C@H]1CC[C@]2(O)C(=O)CO [compound 764] |  |  |  | FOLD INHIBITION RELATIVE TO SOLVENT CONTROL, hGH [1]: 4.54; FOLD INHIBITION RELATIVE TO SOLVENT CONTROL, MMTV (MMTV (M10) promoter): 0.59
NC(=O)c1ccccc1O [compound 798] |  |  |  | FOLD INHIBITION RELATIVE TO SOLVENT CONTROL, hGH [1, 3]: 0.90 fold; FOLD INHIBITION RELATIVE TO SOLVENT CONTROL, MMTV (MMTV (M10) promoter; [4]): 0.68 fold
Cc1n[nH]cc1Br [compound 2082] |  |  |  | FOLD INHIBITION RELATIVE TO SOLVENT CONTROL, hGH [1, 3]: 0.65 fold; FOLD INHIBITION RELATIVE TO SOLVENT CONTROL, MMTV (MMTV (M10) promoter; [4]): 1.23 fold
ClCCCCCBr [compound 2097] | 0.88 fold |  | 1.22 fold | 
OCc1cccc(Cl)c1 [compound 2121] |  |  |  | FOLD INHIBITION RELATIVE TO SOLVENT CONTROL, hGH [1, 3]: 0.40 fold; FOLD INHIBITION RELATIVE TO SOLVENT CONTROL, MMTV (MMTV (M10) promoter; [4]): 1.14 fold
